According to patent US8648066B2 (Exelixis, Inc., priority 2009, dated 2014):
pIC50: −log10 of the molar value.

These compounds were tested against mTOR/GbL/Raptor (mTORC1) (Homo sapiens, UniProt P42345) (assay: mTOR/GbL/Raptor (mTORC1) ELISA assay). Details: phosphorylation of 4E-BP1; 0.2 nM mTORC1, 10 μM ATP; read-out: IC50 in this assay (mTORC1 ELISA).
Format: biochemical
How it was run: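 Human mTORC1 (0.2 nM) phosphorylated 50 nM His-tagged 4E-BP1 with 10 µM ATP in HEPES pH 7.2 containing 10 mM MnCl2, 120 min at ambient temperature. Substrate was captured on Ni-chelate plates; phospho-4E-BP1 was detected by primary antibody and HRP secondary with luminescence.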

pIC50 | Structure (SMILES)
7.30 to 8.00 | CC[C@@H](C)NCc1nc2c(c(N3CCOc4ccc(-c5cnc6nc(C)[nH]c6c5)cc4C3)n1)CC(C)(C)CC2 [Example 300, (2R)-N-({6,6-dimethyl-4-[7-(2-methyl-1H-imidazo[4,5-b]pyridin-6-yl)-2,3-dihydro-1,4-benzoxazepin-4(5H)-yl]-5,6,7,8-tetrahydroquinazolin-2-yl}methyl)butan-2-amine]
7.30 to 8.00 | C[C@@H](CO)CS(=O)(=O)c1cc(-c2ccc3c(c2)CN(c2ncnc4c2CC(C)(C)CC4)CCO3)cnc1N [Example 301, (2S)-3-({2-amino-5-[4-(6,6-dimethyl-5,6,7,8-tetrahydroquinazolin-4-yl)-2,3,4,5-tetrahydro-1,4-benzoxazepin-7-yl]pyridin-3-yl}sulfonyl)-2-methylpropan-1-ol]
6.00 to 6.60 | COc1ccc2c(N3CCOc4ccc(-c5cnc(N)c([S+]([O-])C[C@@H](C)CO)c5)cc4C3)ncnc2c1 (stereo partly drawn) [Example 302, (2S)-3-[(2-amino-5-{4-[7-(methyloxy)quinazolin-4-yl]-2,3,4,5-tetrahydro-1,4-benzoxazolin-7-yl}pyridin-3-yl)sulfinyl]-2-methylpropan-1-ol]
6.00 to 6.60 | COc1ccc2c(N3CCOc4ccc(-c5cnc(N)c(S(=O)(=O)C[C@@H](C)CO)c5)cc4C3)ncnc2c1 [Example 303, (2S)-3-[(2-amino-5-{4-[7-(methyloxy)quinazolin-4-yl]-2,3,4,5-tetrahydro-1,4-benzoxazepin-7-yl}pyridin-3-yl)sulfonyl]-2-methylpropan-1-ol]
≥ 8.00 | CC[C@H](C)NCc1nc2c(c(N3CCOc4ccc(-c5cnc6nc(C)[nH]c6c5)cc4C3)n1)CC(C)(C)CC2 [Example 304, (2S)-N-({6,6-dimethyl-4-[7-(2-methyl-1H-imidazo[4,5-b]pyridin-6-yl)-2,3-dihydro-1,4-benzoxazepin-4(5H)-yl]-5,6,7,8-tetrahydroquinazolin-2-yl}methyl)butan-2-amine]
7.30 to 8.00 | CC1(C)CCc2ncnc(N3CCOc4ccc(-c5cnc(N)c(S(=O)(=O)N6CC[C@@H](O)C6)c5)cc4C3)c2C1 [Example 305, (3R)-1-({2-amino-5-[4-(6,6-dimethyl-5,6,7,8-tetrahydroquinazolin-4-yl)-2,3,4,5-tetrahydro-1,4-benzoxazepin-7-yl]pyridin-3-yl}sulfonyl)pyrrolidin-3-ol]
6.00 to 6.60 | CC1(C)CCc2ncnc(N3CCOc4ccc(-c5cnc(N6CC[C@H](N)C6)c(S(=O)(=O)N6CC[C@H](N)C6)c5)cc4C3)c2C1 [Example 306, (3S)-1-({2-[(3S)-3-aminopyrrolidin-1-yl]-5-[4-(6,6-dimethyl-5,6,7,8-tetrahydroquinazolin-4-yl)-2,3,4,5-tetrahydro-1,4-benzoxazepin-7-yl]pyridin-3-yl}sulfonyl)pyrrolidin-3-amine]
6.00 to 6.60 | CC1(C)CCc2ncnc(N3CCOc4ccc(-c5cnc(Cl)c(S(=O)(=O)N6CC[C@H](N)C6)c5)cc4C3)c2C1 [Example 307, (3S)-1-({2-chloro-5-[4-(6,6-dimethyl-5,6,7,8-tetrahydroquinazolin-4-yl)-2,3,4,5-tetrahydro-1,4-benzoxazepin-7-yl]pyridin-3-yl}sulfonyl)pyrrolidin-3-amine]
≥ 8.00 | CC1(C)CCc2nc(CO)nc(N3CCOc4ccc(-c5cnc6sc(N)nc6c5)cc4C3)c2C1 [Example 308, {4-[7-(2-amino[1,3]thiazolo[5,4-b]pyridin-6-yl)-2,3-dihydro-1,4-benzoxazepin-4(5H)-yl]-6,6-dimethyl-5,6,7,8-tetrahydroquinazolin-2-yl}methanol]
6.60 to 7.30 | Cc1nc2ncc(-c3ccc4c(c3)CN(c3ncnc5c3CCC(CO)C5)CCO4)cc2[nH]1 (stereo not drawn) [Example 309, {4-[7-(2-methyl-1H-imidazo[4,5-b]pyridin-6-yl)-2,3-dihydro-1,4-benzoxazepin-4(5H)-yl]-5,6,7,8-tetrahydroquinazolin-7-yl}methanol]
≥ 8.00 | Cc1nc2cc(-c3ccc4c(c3)CN(c3nc(CO)nc(C)c3Cc3ccc(F)cc3)CCO4)ccc2[nH]1 [Example 310, {5-[(4-fluorophenyl)methyl]-4-methyl-6-[7-(2-methyl-1H-benzimidazol-5-yl)-2,3-dihydro-1,4-benzoxazepin-4(5H)-yl]pyrimidin-2-yl}methanol]
≥ 8.00 | CC(=O)OCc1nc(C)c(Cc2ccc(F)cc2)c(N2CCOc3ccc(-c4ccc5[nH]c(C)nc5c4)cc3C2)n1 [Example 311, {5-[4(fluorophenyl)methyl]-4-methyl-6-[7-(2-methyl-1H-benzimidazol-5-yl)-2,3-dihydro-1,4-benzoxazepin-4(5H)-yl]pyrimidin-2-yl}methyl acetate]
≥ 8.00 | Cc1nc2ncc(-c3ccc4c(c3)CN(c3nc(CO)nc5c3CC(C)(C)CC5)CCO4)cc2[nH]1 [Example 312, {6,6-dimethyl-4-[7-(2-methyl-1H-imidazo[4,5-b]pyridin-6-yl)-2,3-dihydro-1,4-benzoxazepin-4(5H)-yl]-5,6,7,8-tetrahydroquinazolin-2-yl}methanol]
≥ 8.00 | CC(=O)OCc1nc2c(c(N3CCOc4ccc(-c5cnc6nc(C)[nH]c6c5)cc4C3)n1)CC(C)(C)CC2 [Example 313, {6,6-dimethyl-4-[7-(2-methyl-1H-imidazo[4,5-b]pyridin-6-yl)-2,3-dihydro-1,4-benzoxazepin-4(5H)-yl]-5,6,7,8-tetrahydroquinazolin-2-yl}methyl acetate]
7.30 to 8.00 | CC1(C)CCc2ncnc(N3CCOc4ccc(-c5cnc(N)c(S(=O)(=O)N6CC(O)(CO)C6)c5)cc4C3)c2C1 [Example 314, 1-({2-amino-5-[4-(6,6-dimethyl-5,6,7,8-tetrahydroquinazolin-4-yl)-2,3,4,5-tetrahydro-1,4-benbzoxazepin-7-yl]pyridin-3-yl}sulfonyl)-3-(hydroxymethyl)azetidin-3-ol]
7.30 to 8.00 | CC1(C)CCc2ncnc(N3CCOc4ccc(-c5cnc(N)c(S(=O)(=O)N6CC(O)C6)c5)cc4C3)c2C1 [Example 315, 1-({2-amino-5-[4-(6,6-dimethyl-5,6,7,8-tetrahydroquinazolin-4-yl)-2,3,4,5-tetrahydro-1,4-benzoxazepin-7-yl]pyridin-3-yl}sulfonyl)azetidin-3-ol]
7.30 to 8.00 | CC1(C)CCc2ncnc(N3CCOc4ccc(-c5cnc(N)c(S(=O)(=O)N6CCCC(O)C6)c5)cc4C3)c2C1 (stereo not drawn) [Example 316]
6.60 to 7.30 | CC1(C)CCc2ncnc(N3CCOc4ccc(-c5cnc(N)c(S(=O)(=O)N6CCC(O)CC6)c5)cc4C3)c2C1 [Example 317, 1-({2-amino-5-[4-(6,6-dimethyl-5,6,7,8-tetrahydroquinazolin-4-yl)-2,3,4,5-tetrahydro-1,4-benzoxazepin-7-yl]pyridin-3-yl}sulfonyl)piperidin-4-ol]
7.30 to 8.00 | CC1(C)CCc2ncnc(N3CCOc4ccc(-c5cnc(N)c(S(=O)(=O)N6CCC(O)C6)c5)cc4C3)c2C1 (stereo not drawn) [Example 318]
7.30 to 8.00 | CN(C)Cc1nc2c(c(N3CCOc4ccc(-c5ccc6[nH]c(C(F)F)nc6c5)cc4C3)n1)CC(C)(C)CC2 [Example 320]
≥ 8.00 | Cc1nc(CN(C)C)nc(N2CCOc3ccc(-c4ccc5[nH]c(CF)nc5c4)cc3C2)c1Cc1ccc(F)cc1 [Example 321]
7.30 to 8.00 | CN(C)Cc1nc2c(c(N3CCOc4ccc(-c5ccc6[nH]c(CF)nc6c5)cc4C3)n1)CC(C)(C)CC2 [Example 322]
6.00 to 6.60 | COc1ccc(-c2ccc3c(c2)CN(c2nc(CN(C)C)nc4c2CC(C)(C)CC4)CCO3)cc1OC [Example 323, 1-(4-{7-[3,4-bis(methyloxy)phenyl]-2,3-dihydro-1,4-benzoxazepin-4(5H)-yl}-6,6-dimethyl-5,6,7,8-tetrahydroquinazolin-2-yl)-N,N-dimethylmethanamine]
6.00 to 6.60 | COc1ccc(-c2ccc3c(c2)CN(c2nc(CN(C)C)nc4c2CC(C)(C)CC4)CCO3)cc1Cl [Example 324, 1-(4-{7-[3-chloro-4-(methyloxy)phenyl]-2,3-dihydro-1,4-benzoxazepin-4(5H)-yl}-6,6-dimethyl-5,6,7,8-tetrahydroquinazolin-2-yl)-N,N-dimethylmethanamine]
≥ 8.00 | CN(C)Cc1nc2c(c(N3CCOc4ccc(-c5ccc(-c6ncc[nH]6)cc5)cc4C3)n1)CC(C)(C)CC2 [Example 325]
6.00 to 6.60 | COCCOc1ccc(-c2ccc3c(c2)CN(c2nc(CN(C)C)nc4c2CC(C)(C)CC4)CCO3)cc1OC [Example 327, 1-(6,6-dimethyl-4-{7-[3-(methyloxy)-4-{[2-(methyloxy)ethyl]oxy}phenyl]-2,3-dihydro-1,4-benzoxazepin-4(5H)-yl}-5,6,7,8-tetrahydroquinazolin-2-yl)-N,N-dimethylmethanamine]
6.00 to 6.60 | COc1ccc(-c2ccc3c(c2)CN(c2nc(CN(C)C)nc4c2CC(C)(C)CC4)CCO3)cn1 [Example 330, 1-(6,6-dimethyl-4-{7-[6-(methyloxy)pyridin-3-yl]-2,3-dihydro-1,4-benzoxazepin-4(5H)-yl}-5,6,7,8-tetrahydroquinazolin-2-yl)-N,N-dimethylmethanamine]
6.60 to 7.30 | Cc1nc(CN(C)C)nc(N2CCOc3ccc(-c4ccc5[nH]c(C(F)F)nc5c4)cc3C2)c1C(C)C [Example 331, 1-[4-{7-[2-(difluoromethyl)-1H-benzimidazol-5-yl]-2,3-dihydro-1,4-benzoxazepin-4(5H)-yl}-6-methyl-5-(1-methylethyl)pyrimidin-2-yl]-N,N-dimethylmethanamine]
6.60 to 7.30 | Cc1nc(CN(C)C)nc(N2CCOc3ccc(-c4ccc5[nH]c(CF)nc5c4)cc3C2)c1C(C)C [Example 332, 1-[4-{7-[2-(fluoromethyl)-1H-benzimidazol-5-yl]-2,3-dihydro-1,4-benzoxazepin-4(5H)-yl}-6-methyl-5-(1-methylethyl)pyrimidin-2-yl]-N,N-dimethylmethanamine]
≤ 5.70 | COc1ccc2c(N3CCOc4ccc(-c5ccc(OC)c(OC)c5)cc4C3)nc(CN(C)C)nc2c1 [Example 333, 1-[4-{7-[3,4-bis(methyloxy)phenyl]-2,3-dihydro-1,4-benzoxazepin-4(5H)-yl}-7-(methyloxy)quinazolin-2-yl]-N,N-dimethylmethanamine]
